# Measured values published in US11286278B2, “DPEP-1 binding agents and methods of use” (Arch Biopartners, Inc., priority 2018, dated 2022).
# Key:
# DPEP1 [1] = biological target: T1, DPEP1 (Homo sapiens, UniProt P16444); assay: Phage hit binding to DPEP1 transfected Cos 1 cells; parameters: expressed in transfected cells; host or cells: Cos-1; settings: 10^8 pfu test phage, backscreen DPEP1 vs DPEP2
# T1 sequence (P16444 17-385): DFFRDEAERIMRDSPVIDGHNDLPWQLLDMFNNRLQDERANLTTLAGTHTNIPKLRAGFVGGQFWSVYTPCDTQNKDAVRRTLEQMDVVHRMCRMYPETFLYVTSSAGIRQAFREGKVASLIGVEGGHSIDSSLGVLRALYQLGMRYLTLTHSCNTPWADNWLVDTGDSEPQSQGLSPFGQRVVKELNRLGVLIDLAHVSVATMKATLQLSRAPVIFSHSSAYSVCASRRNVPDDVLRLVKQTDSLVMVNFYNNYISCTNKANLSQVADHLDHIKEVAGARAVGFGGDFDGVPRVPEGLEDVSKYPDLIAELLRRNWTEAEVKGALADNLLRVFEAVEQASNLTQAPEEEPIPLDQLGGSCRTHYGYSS
# Procedure: The Ph.D.-12 library was first subtracted 3× against DPEP2 (Creative Biomart; DPEP2-8611H) linked to agarose beads (10 uL of DPEP-agarose in 100 uL Luria broth and 4.5×10^9 pfu of Ph.D.-12 library), wherein the phage remaining in the supernatant was retained, and those that stuck to the subtraction beads were discarded. Second, the library was selected against DPEP1-agarose beads, wherein the phage remaining in the supernatant were discarded and those binding to DPEP1-agarose pellet were retained. The pellet was washed 3× in PBS, then transferred to phage host bacterial culture (ER 2738) to amplify the bound phage, which were then precipitated as per manufacturer's protocol. The recovered phage were then used to repeat the subtraction and selection steps. […] Each plaque was amplified separately in liquid bacterial host culture. […] DNA inserts were translated to the expected protein and sorted to assess the number of repeating sequences. […]
# In FIG. 19B, Cos1 cells were transiently transfected with plasmids corresponding to human DPEP1 or DPEP2 (Lipofectamine 2000) 24 hrs prior to plating on collagen-coated (PureCol; Type I collagen from bovine tendon) coverslips. One day later cells were incubated with 10^8 pfu test phage, which were then detected by anti-M13 rabbit serum (in house) with anti-rabbit Alexa 568 secondary. […]
# [2] = tested on: LPS activated endothelial cells (HLMVEC); assay: Static neutrophil adhesion assay to LPS activated endothelial cells (HLMVEC); type: cell-based; settings: human neutrophils, peptides at 100 uM or antibody at 13 ug/mL, LPS 1 ug/mL
# Procedure: (§1) In the top panel, 96-well nickel-coated plates were coated with nothing or his-tagged recombinant human DPEP1 (9 pmol/well in PBS, incubated for 1 hr at room temp), washed out 3× with PBS +0.05% Tween 20, and blocked for 1 hr at room temp with cell culture media (Cell Applications Inc. Cat#111-500). Freshly isolated human neutrophils were added to the wells at 5×10^4/mL, 100 uL volume, with the indicated peptides at 0.45uM. After 30 minutes at 37° C., wells were washed out 3× with PBS, and fixed with 3.7% formaldehyde in PBS. Two fields-of-view were photographed at 4× magnification and all the cells counted were recorded for each well, done in triplicate. In the middle panel, Cos1 cells were transfected with an empty vector (Mock) or a vector encoding wild type human DPEP1, two days prior. One day prior, transfected cells were plated at near confluency in a 24-well plate. On the day of the experiment, freshly isolated human neutrophils were added to the wells at 1×10^5/mL, 0.5mL volume, with the indicated peptides at 100 uM. After 30 minutes at 37° C., wells were washed out 3× with culture media, then fixed in 3.7% formaldehyde in PBS. Five fields-of-view were photographed at 20× magnification and averaged for each well, done in triplicate. In the bottom panel, two days prior, 24-well plates were coated with Attachment Factor Solution (Cell Applications Inc. Cat#123-500). […]
# [3] = tested on: monocyte adhesion in kidney; assay: Endotoxemia induced kidney inflammation, monocyte adhesion by multiphoton microscopy; type: in vivo, mouse; settings: LysM gfp/gfp mice, LPS O111:B4 5 mg/kg i.v., 4 hours post LPS, peptide pretreatment
# Procedure: HEK293T cells were transfected with pcDNA vector containing human DPEP1 via Lipofectamine 2000 as per manufacturer protocol. Transfected cells were positively selected for using geneticin resistance and subcloned to generate stably transfected DPEP1 clones. Human renal tubular epithelial cells (hTEC) were isolated and cultured from human kidney nephrectomies. For immunocytochemistry, cells were cultured on collagen coated glass coverslips and fixed by 4% paraformaldehyde. Fixed cells were incubated with biotinylated LSALT peptides (50 μM) with various modifications (glycine linkers and/or amidation) for 1 hour at 37° C. before PBS washes. Bound biotinylated peptide was detected via secondary streptavidin fluorescent conjugate (30 min. incubation at 37° C.) and washed with PBS. […] Bound biotinylated peptide was detected via secondary streptavidin fluorescent conjugate (30 min. incubation at 37° C.) and washed with PBS. Peptide binding was analyzed via flow cytometer. […] Inflammation was quantified by manual counting of monocyte adhesion in single microscopy fields (n=3-6 fields/group; *:p=0.02).
# Plasma was separated for each sample and phosphoric acid added to stabilize peptide at each timepoint. Samples were assessed for LSALT and its' metabolites using LC/MS. […] Peptide binding was analyzed via flow cytometer. […]
# [4] = tested on: Cos 1 transfected cells (human DPEP1); assay: Static neutrophil adhesion assay to DPEP1 transfected Cos1 cells; type: cell-based; settings: human neutrophils, peptides at 100 uM, 30 minutes
# Procedure: as §1
# DPEP1 [5] = biological target: T1, DPEP1; assay: Static neutrophil adhesion assay to recombinant hDPEP1; type: cell-based; parameters: purchased Creative Biomart DPEP1-77H; settings: human neutrophils, peptides at 0.45uM, 30 minutes
# Procedure: as §1
sequence,measurement,setting,value
KHMHWHPPALNT,phage binding to DPEP1 transfected cells,DPEP1 [1],brightest binding to DPEP1 transfected cells
HIPKSPIQIPII,neutrophil adhesion to LPS activated endothelial cells (HLMVEC),[2],able to inhibit neutrophil adhesion
"GGGLSALTPSPSWLKYKAL [Peptide G2, tri-glycine LSALT (G2)]",endotoxemia induced kidney inflammation (monocyte adhesion),[3],can inhibit endotoxemia induced kidney inflammation
KHMHWHPPALNT [NeoH],neutrophil adhesion to DPEP1 transfected Cos 1 cells,[4],able to inhibit neutrophil adhesion
same,neutrophil adhesion to recombinant hDPEP1,DPEP1 [5],able to inhibit neutrophil adhesion
same,neutrophil adhesion to LPS activated endothelial cells (HLMVEC),[2],able to inhibit neutrophil adhesion
